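Interpolation was linear, between the two tested concentrations surrounding the appropriate level; five concentrations were tested over 48 hours in 96-well plates. TGI marks complete inhibition of growth.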
The compounds below were run on OVCAR-8 ovarian (assay: NCI anticancer screen, dose series, 48 h).

`O=c1c(Cc2c(O)ccc3ccccc23)nnc2sc(-c3nn4c(=O)c(Cc5c(O)ccc6ccccc56)nnc4s3)nn12` and `C/C(=C\COc1cc(O)c2c(c1)C(=O)c1cc(C)cc(O)c1C2=O)CCC1OC1(C)C` (stereo unspecified) cannot be ordered by TGI: over 100 µM for the first, over 100 µM for the second.

Work on `Cc1[nH]c(=O)[nH]c(=S)c1C(=O)NC1C2CCCCC2NC2CCCCC21` (stereo unspecified) yielded a TGI of 36.2 µM.

Each compound was assayed on PC-3 prostate (assay: NCI anticancer screen, dose series, 48 h).

`Cc1ccc(O)c(-c2cc(-c3cccc(Br)c3)on2)c1` and `C/C(=C\COc1cc(O)c2c(c1)C(=O)c1cc(C)cc(O)c1C2=O)CCC1OC1(C)C` (stereo unspecified) cannot be ordered by TGI: over 100 µM for the first, over 100 µM for the second.

`ClC(Cl)(Cl)C(N1CCN(c2ccccc2)CC1)N1CCN(c2ccccc2)CC1` and `O=c1c(Cc2c(O)ccc3ccccc23)nnc2sc(-c3nn4c(=O)c(Cc5c(O)ccc6ccccc56)nnc4s3)nn12` cannot be ordered by TGI: over 100 µM for the first, over 100 µM for the second.

Compound `Cc1[nH]c(=O)[nH]c(=S)c1C(=O)NC1C2CCCCC2NC2CCCCC21` (stereo unspecified) has a TGI of 29.4 µM.

Each compound was assayed on SK-MEL-2 melanoma (assay: NCI anticancer screen, dose series, 48 h).

Going from `Cc1ccc(O)c(-c2cc(-c3cccc(Br)c3)on2)c1` to `C/C(=C\COc1cc(O)c2c(c1)C(=O)c1cc(C)cc(O)c1C2=O)CCC1OC1(C)C` (stereo unspecified), the TGI rises from 56 µM to over 100 µM.

Compared with `ClC(Cl)(Cl)C(N1CCN(c2ccccc2)CC1)N1CCN(c2ccccc2)CC1`, `O=c1c(Cc2c(O)ccc3ccccc23)nnc2sc(-c3nn4c(=O)c(Cc5c(O)ccc6ccccc56)nnc4s3)nn12` is lower in TGI: over 100 µM for the first, 40.3 µM for the second.

`Cc1[nH]c(=O)[nH]c(=S)c1C(=O)NC1C2CCCCC2NC2CCCCC21` (stereo unspecified) gave a TGI of 36.6 µM.

These compounds were tested on MCF7 breast (assay: NCI anticancer screen, dose series, 48 h).

Going from `Cc1ccc(O)c(-c2cc(-c3cccc(Br)c3)on2)c1` to `C/C(=C\COc1cc(O)c2c(c1)C(=O)c1cc(C)cc(O)c1C2=O)CCC1OC1(C)C` (stereo unspecified), the TGI rises from 32.5 µM to over 100 µM.

`ClC(Cl)(Cl)C(N1CCN(c2ccccc2)CC1)N1CCN(c2ccccc2)CC1` and `O=c1c(Cc2c(O)ccc3ccccc23)nnc2sc(-c3nn4c(=O)c(Cc5c(O)ccc6ccccc56)nnc4s3)nn12` cannot be ordered by TGI: over 100 µM for the first, over 100 µM for the second.

For `Cc1[nH]c(=O)[nH]c(=S)c1C(=O)NC1C2CCCCC2NC2CCCCC21` (stereo unspecified), the TGI was 37.2 µM.

These compounds were tested on TK-10 renal (assay: NCI anticancer screen, dose series, 48 h).

First: Cc1ccc(O)c(-c2cc(-c3cccc(Br)c3)on2)c1
Second: C/C(=C\COc1cc(O)c2c(c1)C(=O)c1cc(C)cc(O)c1C2=O)CCC1OC1(C)C (stereo unspecified)
The TGI of the first is lower: 43.2 µM for the first, over 100 µM for the second.

`ClC(Cl)(Cl)C(N1CCN(c2ccccc2)CC1)N1CCN(c2ccccc2)CC1` and `O=c1c(Cc2c(O)ccc3ccccc23)nnc2sc(-c3nn4c(=O)c(Cc5c(O)ccc6ccccc56)nnc4s3)nn12` cannot be ordered by TGI: over 100 µM for the first, over 100 µM for the second.

For `Cc1[nH]c(=O)[nH]c(=S)c1C(=O)NC1C2CCCCC2NC2CCCCC21` (stereo unspecified), the TGI was 30.6 µM.

Each compound was assayed on SK-MEL-5 melanoma (assay: NCI anticancer screen, dose series, 48 h).

Going from `Cc1ccc(O)c(-c2cc(-c3cccc(Br)c3)on2)c1` to `C/C(=C\COc1cc(O)c2c(c1)C(=O)c1cc(C)cc(O)c1C2=O)CCC1OC1(C)C` (stereo unspecified), the TGI rises from 41.6 µM to over 100 µM.

Compared with `ClC(Cl)(Cl)C(N1CCN(c2ccccc2)CC1)N1CCN(c2ccccc2)CC1`, `Cc1[nH]c(=O)[nH]c(=S)c1C(=O)NC1C2CCCCC2NC2CCCCC21` (stereo unspecified) is lower in TGI: over 100 µM for the first, 33.3 µM for the second.

What follows are compounds tested on DU-145 prostate (assay: NCI anticancer screen, dose series, 48 h).

`Cc1ccc(O)c(-c2cc(-c3cccc(Br)c3)on2)c1` and `C/C(=C\COc1cc(O)c2c(c1)C(=O)c1cc(C)cc(O)c1C2=O)CCC1OC1(C)C` (stereo unspecified) cannot be ordered by TGI: over 100 µM for the first, over 100 µM for the second.

`ClC(Cl)(Cl)C(N1CCN(c2ccccc2)CC1)N1CCN(c2ccccc2)CC1` and `O=c1c(Cc2c(O)ccc3ccccc23)nnc2sc(-c3nn4c(=O)c(Cc5c(O)ccc6ccccc56)nnc4s3)nn12` cannot be ordered by TGI: over 100 µM for the first, over 100 µM for the second.

`Cc1[nH]c(=O)[nH]c(=S)c1C(=O)NC1C2CCCCC2NC2CCCCC21` (stereo unspecified) was tested, and the TGI was 26.6 µM.

What follows are compounds tested on 786-0 renal (assay: NCI anticancer screen, dose series, 48 h).

`Cc1ccc(O)c(-c2cc(-c3cccc(Br)c3)on2)c1` and `C/C(=C\COc1cc(O)c2c(c1)C(=O)c1cc(C)cc(O)c1C2=O)CCC1OC1(C)C` (stereo unspecified) cannot be ordered by TGI: over 100 µM for the first, over 100 µM for the second.

`ClC(Cl)(Cl)C(N1CCN(c2ccccc2)CC1)N1CCN(c2ccccc2)CC1` and `O=c1c(Cc2c(O)ccc3ccccc23)nnc2sc(-c3nn4c(=O)c(Cc5c(O)ccc6ccccc56)nnc4s3)nn12` cannot be ordered by TGI: over 100 µM for the first, over 100 µM for the second.

The compounds below were run on UACC-257 melanoma (assay: NCI anticancer screen, dose series, 48 h).

`Cc1ccc(O)c(-c2cc(-c3cccc(Br)c3)on2)c1` and `C/C(=C\COc1cc(O)c2c(c1)C(=O)c1cc(C)cc(O)c1C2=O)CCC1OC1(C)C` (stereo unspecified) cannot be ordered by TGI: over 100 µM for the first, over 100 µM for the second.

`ClC(Cl)(Cl)C(N1CCN(c2ccccc2)CC1)N1CCN(c2ccccc2)CC1` and `O=c1c(Cc2c(O)ccc3ccccc23)nnc2sc(-c3nn4c(=O)c(Cc5c(O)ccc6ccccc56)nnc4s3)nn12` cannot be ordered by TGI: over 100 µM for the first, over 100 µM for the second.

In the case of `Cc1[nH]c(=O)[nH]c(=S)c1C(=O)NC1C2CCCCC2NC2CCCCC21` (stereo unspecified), the TGI is reported as 33.5 µM.

Each compound was assayed on U251 CNS (assay: NCI anticancer screen, dose series, 48 h).

First: Cc1ccc(O)c(-c2cc(-c3cccc(Br)c3)on2)c1
Second: C/C(=C\COc1cc(O)c2c(c1)C(=O)c1cc(C)cc(O)c1C2=O)CCC1OC1(C)C (stereo unspecified)
The TGI of the first is lower: 33.7 µM for the first, over 100 µM for the second.

`ClC(Cl)(Cl)C(N1CCN(c2ccccc2)CC1)N1CCN(c2ccccc2)CC1` and `O=c1c(Cc2c(O)ccc3ccccc23)nnc2sc(-c3nn4c(=O)c(Cc5c(O)ccc6ccccc56)nnc4s3)nn12` cannot be ordered by TGI: over 100 µM for the first, over 100 µM for the second.

For `Cc1[nH]c(=O)[nH]c(=S)c1C(=O)NC1C2CCCCC2NC2CCCCC21` (stereo unspecified), the TGI was 27.1 µM.

What follows are compounds tested on CCRF-CEM leukemia (assay: NCI anticancer screen, dose series, 48 h).

`Cc1ccc(O)c(-c2cc(-c3cccc(Br)c3)on2)c1` and `C/C(=C\COc1cc(O)c2c(c1)C(=O)c1cc(C)cc(O)c1C2=O)CCC1OC1(C)C` (stereo unspecified) cannot be ordered by TGI: over 100 µM for the first, over 100 µM for the second.

Compared with `O=c1c(Cc2c(O)ccc3ccccc23)nnc2sc(-c3nn4c(=O)c(Cc5c(O)ccc6ccccc56)nnc4s3)nn12`, `Cc1[nH]c(=O)[nH]c(=S)c1C(=O)NC1C2CCCCC2NC2CCCCC21` (stereo unspecified) is 2.7-fold lower in TGI: 96.3 µM for the first, 36.2 µM for the second.

These compounds were tested on HCT-116 colon (assay: NCI anticancer screen, dose series, 48 h).

Compared with `Cc1ccc(O)c(-c2cc(-c3cccc(Br)c3)on2)c1`, `C/C(=C\COc1cc(O)c2c(c1)C(=O)c1cc(C)cc(O)c1C2=O)CCC1OC1(C)C` (stereo unspecified) is higher in TGI: 57.7 µM for the first, over 100 µM for the second.

`ClC(Cl)(Cl)C(N1CCN(c2ccccc2)CC1)N1CCN(c2ccccc2)CC1` and `O=c1c(Cc2c(O)ccc3ccccc23)nnc2sc(-c3nn4c(=O)c(Cc5c(O)ccc6ccccc56)nnc4s3)nn12` cannot be ordered by TGI: over 100 µM for the first, over 100 µM for the second.

Work on `Cc1[nH]c(=O)[nH]c(=S)c1C(=O)NC1C2CCCCC2NC2CCCCC21` (stereo unspecified) yielded a TGI of 31 µM.

Each compound was assayed on NCI-H226 lung (assay: NCI anticancer screen, dose series, 48 h).

Going from `ClC(Cl)(Cl)C(N1CCN(c2ccccc2)CC1)N1CCN(c2ccccc2)CC1` to `Cc1[nH]c(=O)[nH]c(=S)c1C(=O)NC1C2CCCCC2NC2CCCCC21` (stereo unspecified), the TGI falls from over 100 µM to 33.2 µM.

These compounds were tested on MDA-N (assay: NCI anticancer screen, dose series, 48 h).

Compared with `Cc1ccc(O)c(-c2cc(-c3cccc(Br)c3)on2)c1`, `C/C(=C\COc1cc(O)c2c(c1)C(=O)c1cc(C)cc(O)c1C2=O)CCC1OC1(C)C` (stereo unspecified) is higher in TGI: 65.2 µM for the first, over 100 µM for the second.

`ClC(Cl)(Cl)C(N1CCN(c2ccccc2)CC1)N1CCN(c2ccccc2)CC1` and `O=c1c(Cc2c(O)ccc3ccccc23)nnc2sc(-c3nn4c(=O)c(Cc5c(O)ccc6ccccc56)nnc4s3)nn12` cannot be ordered by TGI: over 100 µM for the first, over 100 µM for the second.

With `Cc1[nH]c(=O)[nH]c(=S)c1C(=O)NC1C2CCCCC2NC2CCCCC21` (stereo unspecified) the TGI was 34.9 µM.

The compounds below were run on COLO 205 colon (assay: NCI anticancer screen, dose series, 48 h).

First: Cc1ccc(O)c(-c2cc(-c3cccc(Br)c3)on2)c1
Second: C/C(=C\COc1cc(O)c2c(c1)C(=O)c1cc(C)cc(O)c1C2=O)CCC1OC1(C)C (stereo unspecified)
The TGI of the first is lower: 37.1 µM for the first, over 100 µM for the second.

Going from `ClC(Cl)(Cl)C(N1CCN(c2ccccc2)CC1)N1CCN(c2ccccc2)CC1` to `Cc1[nH]c(=O)[nH]c(=S)c1C(=O)NC1C2CCCCC2NC2CCCCC21` (stereo unspecified), the TGI falls from over 100 µM to 39.5 µM.
